Assays:
Assay type in all cases: cell-based
HCT 116 = test: CellTiter-Blue cell growth inhibition assay, HCT 116; conditions: Homo sapiens, HCT-116, 48 h
Method: (§1) Duplicate experiments were performed using the CellTiter-Blue® Cell Viability Assay to determine IC50 values for Compound A, Compound B and Compound C against each cell line. The general methodology for preparation of test articles described in Example 6 was used. The test compounds compound A, compound C disodium salt and compound B ½ maleate salt were initially formulated as 100× stock solutions at a concentration of 10 mg/mL in the appropriate diluents (DMSO for compounds). These stock solutions were then further diluted in cell culture medium to achieve lower concentrations of 100, 50, 25, 12.5, 6.25 and 3.125, 1.563, 0.781, 0.390 and 0.195 μM of active component. The specific cancer cells were A549, HCT 116, MCF-7 and MIA PaCa-2.
(§2) Human cancer cell types were: HTC-116 (colon); A549 (Lung); HT29 (colon); MCF-7; Mia PaCa-2 (pancreas)
(§3) Cells were seeded in duplicate at 3-4,000 per microtitre well in 50 μl of cell culture medium . After 24 hours, 50 μL of test article or vehicle control prepared in medium at 2× required concentration were added to each well. Cancer cells were allowed to grow in the presence of drug for 48 hours before cell growth relative to untreated control wells was determined with CellTiter-Blue® Cell Viability Assay.
(§4) IC50 values were calculated using Prism 6 for Mac OS X using a nonlinear regression (log(inhibitor) vs. response—Variable slope (four parameters)

PC-3 = test: CellTiter-Blue cell growth inhibition assay, PC-3; conditions: Homo sapiens, PC-3, 48 h
MCF-7 = test: CellTiter-Blue cell growth inhibition assay, MCF-7; conditions: Homo sapiens, MCF7, 48 h
Method: as §1, §2, §3, §4

MIA PaCa-2 = test: CellTiter-Blue cell growth inhibition assay, MIA PaCa-2; conditions: Homo sapiens, MIA PaCa-2, 48 h
Method: as §1, §2, §3, §4

A549 = test: CellTiter-Blue cell growth inhibition assay, A549; conditions: Homo sapiens, A549, 48 h
Method: as §1, §2, §3, §4

[1] = system: washed human erythrocytes; test: in vitro haemolysis assay; conditions: for HD50 (50% haemolytic dose): washed human erythrocytes, 3 hours at 37° C.
Method: Haemolysis is a clinical condition where the red cell membrane is irreversibly damaged causing the release of its haemoglobin content. The in vitro haemolysis assay is a simple test to determine the haemolytic potential of a test substance on isolated and washed red blood cells.
In this example three compounds identified as compound A, compound C disodium salt and compound B ½ maleate salt and Saponin from Quillaja bark (S4521) were tested for haemolytic potential using washed human erythrocytes. The compounds were tested over a dose curve with a maximum concentration of […] and a lowest concentration of […]. The concentration range is […].
Briefly, whole blood (40 mL) was collected from a single human volunteer into multiple EDT vacutainer tubes. The red blood cells (RBC) were washed and isolated from plasma components by three centrifugations at 3000 rpm for 5 minutes in isotonic 0.9% sodium chloride. After the final wash, 0.1 mL volumes of red blood cells were added to each treatment tube.
The test compounds compound A, compound C disodium salt and compound B % maleate salt and the reference article (Saponin S4521) were initially formulated as 100× stock solutions at a concentration of 10 mg/mL in the appropriate diluents (DMSO for compounds, 0.9% NaCl for Saponin S4521). These stock solutions were then further diluted 1:100 in 0.9% NaCl to prepare the highest concentration of […] in 1% DMSO/NaCl. The highest concentration solutions were further diluted serially 1:2 in 1% DMSONaC1 to achieve lower concentrations of 50, 25, 12.5, 6.25, 3.125, 1.562 and 0.781 pg/ml of active component.
The positive control article (hypertonic solution of […]) was formulated by weighing 2.92 g NaCl in 10 mL MilliQ water. The negative control article (isotonic solution of 0.154M NaCl) was formulated on the day of use by dissolving 0.09 g NaCl into 10 mL MilliQ water. The vehicle used to dilute the test articles, 1% DMSO/NaCl, was used as the reagent blank in the assay.
Tubes containing cells and treatments were incubated at 37° C. with gentle agitation in an orbital mixer for 3 hours. At completion of the incubation, tubes were centrifuged at 3000 rpm for 5 minutes and 200 ptL aliquots of supernatant from each tube were transferred to a 96-well microplate for measurement of absorbance at 535 nm. A layout for the 96-Nell microplate is presented in Appendix 1. A 1% DMSO/NaCl vehicle in the absence of blood was used as the reagent blank in the assay.
Mean values for the negative (0.154M NaCl), positive (5M NaCl) and blank triplicate wells were determined. These were then used to calculate the % haemolysis for each sample according to the following formula: […]
Calculations of 50% haemolytic dose (HD50) was performed by non-linear regression analyses using a log(agonist) vs normalized response variable slope curve fit on GraphPad Prism for Mac OS X (Version 5.0c, GraphPad Software, California, USA).

[2] = HCT 116, Average ± SEM, 48 hours
[3] = HCT 116, Experiment 1, 48 hours
[4] = HCT 116, Experiment 2, 48 hours
[5] = MIA PaCa-2, Average ± SEM, 48 hours
[6] = MIA PaCa-2, Experiment 1, 48 hours
[7] = MIA PaCa-2, Experiment 2, 48 hours

Row | Structure (SMILES) | IC50 (HCT 116; [2]) [µM] | IC50 (HCT 116; [3]) [µM] | IC50 (HCT 116; [4]) [µM] | IC50 (PC-3; PC-3, Average ± SEM, 48 hours) [µM] | IC50 (PC-3; PC-3, Experiment 1, 48 hours) [µM] | IC50 (PC-3; PC-3, Experiment 2, 48 hours) [µM] | IC50 (MCF-7; MCF-7, Average ± SEM, 48 hours) [µM] | IC50 (MCF-7; MCF-7, Experiment 1, 48 hours) [µM] | IC50 (MCF-7; MCF-7, Experiment 2, 48 hours) [µM] | IC50 (MIA PaCa-2; [5]) [µM] | IC50 (MIA PaCa-2; [6]) [µM] | IC50 (MIA PaCa-2; [7]) [µM] | IC50 (A549; A549, Average ± SEM, 48 hours) [µM] | IC50 (A549; A549, Experiment 1, 48 hours) [µM] | IC50 (A549; A549, Experiment 2, 48 hours) [µM] | percent haemolysis ([1]; concentration 0.781 μg/ml) [%] | percent haemolysis ([1]; concentration 1.562 μg/ml) [%] | percent haemolysis ([1]; concentration 3.125 μg/ml) [%] | percent haemolysis ([1]; concentration 6.25 μg/ml) [%] | percent haemolysis ([1]; concentration 12.5 μg/ml) [%] | further results
1 | CC1O[C@@H](OC2C(O)[C@H](O)C(COP(=O)(O)O)O[C@H]2O[C@H]2CC[C@@]3(C)C(=CC[C@H]4[C@@H]5C[C@@H]6O[C@]7(CC[C@@H](C)CO7)[C@@H](C)[C@@H]6[C@@]5(C)CC[C@@H]43)C2)C(O)C(O)[C@H]1O (stereo partly drawn) [Compound C] | 3.04 ± 1.05 | 4.08 | 1.99 | 3.25 ± 1.07 | 4.32 | 2.18 | 4.17 ± 1.29 | 5.45 | 2.88 | 3.04 ± 0.49 | 3.52 | 2.55 | 2 ± 0.47 | 2.46 | 1.53 |  |  |  |  |  | 
2 | CC1O[C@@H](OC2C(O)[C@H](O)C(COC(=O)[C@@H](N)C(C)C)O[C@H]2O[C@H]2CC[C@@]3(C)C(=CC[C@H]4[C@@H]5C[C@@H]6O[C@]7(CC[C@@H](C)CO7)[C@@H](C)[C@@H]6[C@@]5(C)CC[C@@H]43)C2)C(O)C(O)[C@H]1O (stereo partly drawn) [Compound B] | 12.4 ± 0.72 | 11.7 | 13.1 | 11.7 ± 0.7 | 12.4 | 11 | 15 ± 0.32 | 14.7 | 15.3 | 9.39 ± 1.77 | 11.2 | 7.62 | 10.2 ± 0.31 | 9.86 | 10.5 |  |  |  |  |  | 
3 | CC1O[C@@H](OC2C(O)[C@H](O)C(COP(=O)([O-])O)O[C@H]2O[C@H]2CC[C@@]3(C)C(=CC[C@H]4[C@@H]5C[C@@H]6O[C@]7(CC[C@@H](C)CO7)[C@@H](C)[C@@H]6[C@@]5(C)CC[C@@H]43)C2)C(O)C(O)[C@H]1O.[Na+] (stereo partly drawn) [Compound C disodium salt] |  |  |  |  |  |  |  |  |  |  |  |  |  |  |  | 1.0 | 1.9 | 0.5 | 1.6 | 0.5 | percent haemolysis ([1]; concentration 25 μg/ml): 1.8%; percent haemolysis ([1]; concentration 50 μg/ml): 2.9%; percent haemolysis ([1]; concentration 100 μg/ml): 51.9%; HD50 (50% haemolytic dose) [1]: 145.70 µg/mL
4 | CC1O[C@@H](OC2C(O)[C@H](O)C(CO)O[C@H]2O[C@H]2CC[C@@]3(C)C(=CC[C@H]4[C@@H]5C[C@@H]6O[C@]7(CC[C@@H](C)CO7)[C@@H](C)[C@@H]6[C@@]5(C)CC[C@@H]43)C2)C(O)C(O)[C@H]1O (stereo partly drawn) [Compound A, diosgenyl α-L-rhamnopyranosyl-(1→2)-β-D-glucopyranoside, reference compound] | 5.1 ± 0.08 | 5.17 | 5.02 | 6.14 ± 0.29 | 6.42 | 5.85 | 7.65 ± 0.27 | 7.91 | 7.38 | 5.63 ± 0.55 | 6.17 | 5.08 | 4.17 ± 0.57 | 4.74 | 3.6 | −0.3 | 0.5 | −0.1 | 3.2 | 13.4 | percent haemolysis ([1]; concentration 25 μg/ml): 36.0%; percent haemolysis ([1]; concentration 50 μg/ml): 86.7%; percent haemolysis ([1]; concentration 100 μg/ml): 103.2%; HD50 (50% haemolytic dose) [1]: 31.57 µg/mL

— patent US10925887B2, “Steroid saponins with anti-cancer activity” (Oncology Research International Limited, priority 2017, dated 2021)
